The test has as its target T1, Aurora kinase A (Homo sapiens, UniProt O14965).
T1 sequence (O14965 whole entry): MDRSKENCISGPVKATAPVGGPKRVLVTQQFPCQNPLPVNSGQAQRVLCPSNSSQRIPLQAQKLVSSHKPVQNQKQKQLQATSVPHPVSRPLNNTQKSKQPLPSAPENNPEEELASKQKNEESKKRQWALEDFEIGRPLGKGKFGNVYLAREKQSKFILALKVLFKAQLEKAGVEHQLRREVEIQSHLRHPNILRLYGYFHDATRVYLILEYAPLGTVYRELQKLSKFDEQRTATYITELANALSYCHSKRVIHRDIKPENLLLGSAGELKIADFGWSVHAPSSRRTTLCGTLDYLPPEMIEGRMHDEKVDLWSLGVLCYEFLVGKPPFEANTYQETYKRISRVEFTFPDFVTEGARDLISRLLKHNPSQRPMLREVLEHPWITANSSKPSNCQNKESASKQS
The test can be described thus: The testing compound was diluted up to 100× final concentration in a 384-well plate. Transfer 250 nL of the compound dilution to a 384-well assay plate using Echo 550.

In general, IC50 refers to the concentration at which inhibition is half-maximal. A higher IC50 goes with lower potency.

On to `Cc1cc(Nc2cc(F)cc(C[C@@]3(C(=O)O)CCN(Cc4cccc(Cl)c4F)[C@H](C)C3)n2)n[nH]1`, for which the IC50 came to 1.1 nM.
